Data reported in paper PMC8230315, “A Pan-Inhibitor for Protein Arginine Methyltransferase Family Enzymes” (Biomolecules, 2021).

Legend:
Format in all cases: biochemical
PRMT1 = PRMT1 (Homo sapiens, UniProt Q99873); test: HotSpot radioisotope 3H-AdoMet methyltransferase assay (Reaction Biology), PRMT1
Protocol: (§1) Future studies will focus on obtaining structural information of II757 bound to PRMTs to inform how to connect to a substrate portion to increase both potency and selectivity for each PRMT.
(§2) Figure 6 Selectivity of II757 against the panel of PRMTs. II757 was tested in 10 doses with threefold serial dilution in the HotSpot methyltransferase assay at reaction biology. TEXT PRINTED IN THE PICTURE: II757: IC50 (nM) PRMT1: 16.4; IC50 (nM) PRMT3: 321; IC50 (nM) PRMT4: 5.05; IC50 (nM) PRMT5/MEP50 Complex: 18.2; IC50 (nM) PRMT5 (C449S)/MEP50: 36.6; IC50 (nM) PRMT6: 30.5; IC50 (nM) PRMT7: 555; IC50 (nM) PRMT8: 32.1

G9a = test: Selectivity SAHH-coupled fluorescence assay, G9a
Text: (§3) We chose the top four potent compounds (6b and 6l–n) to investigate their selectivities against several in-house methyltransferases including protein arginine methyltransferase TbPRMT7, two members of the protein lysine methyltransferase PKMT (G9a and SETD7), protein N-terminal methyltransferase 1 (NTMT1), and a small molecule methyltransferase nicotinamide N-methyltransferase (NNMT), all of which have a SAM binding site.
(§4) A fluorescence-based SAHH-coupled assay was applied to study the effect of the compound on methyltransferase activity of PRMT7, NTMT1, SETD7, G9a, NNMT, and SAHH. For PRMT7, the assay was performed in a final well volume of 100 μL: 25 mM Tris (pH = 7.5), 50 mM KCl, 0.01% Triton X-100, 5 μM SAHH, 0.2 μM PRMT7, 3 μM AdoMet, and 15 μM ThioGlo1. After incubation for 10 min with the inhibitor, reactions were initiated by the addition of 60 μM H4-21 peptide, and the reaction was monitored for 15 min. […] After incubation for 10 min with the inhibitor, reactions were initiated by the addition of 0.5 μM GPKRIA peptide, and the reaction was monitored for 15 min. […] After incubation for 10 min with the inhibitor, reactions were initiated by the addition of 90 μM H3-21 peptide, and the reaction was monitored for 15 min. […] After incubation for 10 min with the inhibitor, reactions were initiated by the addition of 10 μM nicotinamide, and the reaction was monitored for 18 min. […]

PRMT8 = target: T1, PRMT8 (Homo sapiens, UniProt Q9NR22); test: HotSpot radioisotope 3H-AdoMet methyltransferase assay, PRMT8
T1 construct: purchased Reaction Biology
T1 sequence (Q9NR22 whole entry): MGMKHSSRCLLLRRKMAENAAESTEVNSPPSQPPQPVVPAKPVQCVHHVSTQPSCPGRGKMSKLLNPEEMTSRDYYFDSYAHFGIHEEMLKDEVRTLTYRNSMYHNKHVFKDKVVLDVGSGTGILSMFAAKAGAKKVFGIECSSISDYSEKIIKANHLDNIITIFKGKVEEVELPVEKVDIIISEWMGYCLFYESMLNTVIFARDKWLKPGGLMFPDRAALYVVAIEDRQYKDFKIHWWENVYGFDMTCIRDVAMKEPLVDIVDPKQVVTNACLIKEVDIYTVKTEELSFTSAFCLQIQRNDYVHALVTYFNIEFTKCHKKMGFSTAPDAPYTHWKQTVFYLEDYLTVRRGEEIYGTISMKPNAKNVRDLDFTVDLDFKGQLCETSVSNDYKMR
Protocol: as §1, §2

NNMT = test: Selectivity SAHH-coupled fluorescence assay, NNMT
Text: as §3, §4

NTMT1 = test: Selectivity SAHH-coupled fluorescence assay, NTMT1
Text: as §3, §4

SETD7 = target: T2, SETD7 (Homo sapiens, UniProt Q8WTS6); test: Selectivity SAHH-coupled fluorescence assay, SETD7
T2 construct: made in house
T2 sequence (Q8WTS6 1-366): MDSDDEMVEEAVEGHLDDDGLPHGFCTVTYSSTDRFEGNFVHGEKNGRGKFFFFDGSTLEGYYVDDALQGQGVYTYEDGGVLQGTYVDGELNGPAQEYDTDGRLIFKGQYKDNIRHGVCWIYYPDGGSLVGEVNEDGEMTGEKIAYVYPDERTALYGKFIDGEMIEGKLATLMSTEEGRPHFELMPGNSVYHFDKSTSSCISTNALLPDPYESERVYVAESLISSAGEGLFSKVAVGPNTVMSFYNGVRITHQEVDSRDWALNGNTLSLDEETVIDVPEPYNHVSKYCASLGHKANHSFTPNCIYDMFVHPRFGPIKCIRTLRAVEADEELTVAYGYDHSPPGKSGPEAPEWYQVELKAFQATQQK
Text: as §3
A fluorescence-based SAHH-coupled assay was applied to study the effect of the compound on methyltransferase activity of PRMT7, NTMT1, SETD7, G9a, NNMT, and SAHH. For PRMT7, the assay was performed in a final well volume of 100 μL: 25 mM Tris (pH = 7.5), 50 mM KCl, 0.01% Triton X-100, 5 μM SAHH, 0.2 μM PRMT7, 3 μM AdoMet, and 15 μM ThioGlo1. After incubation for 10 min with the inhibitor, reactions were initiated by the addition of 60 μM H4-21 peptide, and the reaction was monitored for 15 min. For NTMT1, the assay was performed in a final well volume of 100 μL: 25 mM Tris (pH = 7.5), 50 mM KCl, 0.01% Triton X-100, 5 μM SAHH, 0.1 μM NTMT1, 3 μM AdoMet, and 10 μM ThioGlo4. After incubation for 10 min with the inhibitor, reactions were initiated by the addition of 0.5 μM GPKRIA peptide, and the reaction was monitored for 15 min. For SETD7, the assay was performed in a final well volume of 100 μL: 25 mM potassium phosphate buffer (pH = 7.6), 0.01% Triton X-100, 5 μM SAHH, 1 μM SETD7, 2 μM AdoMet, and 10 μM ThioGlo1. After incubation for 10 min with the inhibitor, reactions were initiated by the addition of 90 μM H3-21 peptide, and the reaction was monitored for 15 min. For G9a, the assay was performed in a final well volume of 100 μL: 25 mM potassium phosphate buffer (pH = 7.6), 1 mM EDTA, 2 mM MgCl2, 0.01% Triton X-100, 5 μM SAHH, 0.1 μM His-G9a, 10 μM AdoMet, and 10 μM ThioGlo4. For NNMT, the assay was performed in a final well volume of 100 μL: 25 mM Tris (pH = 7.5), 50 mM KCl, 0.01% Triton X- 100, 5 μM SAHH, 0.1 μM NNMT, 10 μM AdoMet, and 10 μM ThioGlo1. After incubation for 10 min with the inhibitor, reactions were initiated by the addition of 10 μM nicotinamide, and the reaction was monitored for 18 min. The inhibitors were added at five concentrations: 100, 33.3, 11.1, 3.7, and 1.2 μM.

PRMT5 (C449S)/MEP50 = target: T3, PRMT5 (C449S)/MEP50 (Homo sapiens, UniProt O14744, C449S); test: HotSpot radioisotope 3H-AdoMet methyltransferase assay, PRMT5 (C449S)/MEP50
T3 construct: purchased Reaction Biology
T3 sequence (O14744 whole entry C449S): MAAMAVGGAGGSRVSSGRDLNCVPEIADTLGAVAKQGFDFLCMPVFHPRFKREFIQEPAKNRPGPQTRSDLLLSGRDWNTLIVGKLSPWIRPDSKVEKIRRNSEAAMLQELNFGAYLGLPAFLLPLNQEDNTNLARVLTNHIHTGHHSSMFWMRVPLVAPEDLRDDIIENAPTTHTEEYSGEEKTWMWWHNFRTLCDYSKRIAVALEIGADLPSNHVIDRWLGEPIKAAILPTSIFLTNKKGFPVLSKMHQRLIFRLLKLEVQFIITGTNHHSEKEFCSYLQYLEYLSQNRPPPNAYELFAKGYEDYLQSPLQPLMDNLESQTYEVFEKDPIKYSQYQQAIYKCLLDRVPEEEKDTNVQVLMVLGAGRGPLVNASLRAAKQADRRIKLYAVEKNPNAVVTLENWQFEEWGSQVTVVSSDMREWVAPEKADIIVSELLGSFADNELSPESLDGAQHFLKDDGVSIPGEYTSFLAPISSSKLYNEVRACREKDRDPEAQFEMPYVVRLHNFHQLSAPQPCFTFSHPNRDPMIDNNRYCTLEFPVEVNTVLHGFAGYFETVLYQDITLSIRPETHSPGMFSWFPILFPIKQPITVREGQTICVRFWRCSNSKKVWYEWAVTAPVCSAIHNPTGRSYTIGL
T3 sequence (Q9BQA1 whole entry partner): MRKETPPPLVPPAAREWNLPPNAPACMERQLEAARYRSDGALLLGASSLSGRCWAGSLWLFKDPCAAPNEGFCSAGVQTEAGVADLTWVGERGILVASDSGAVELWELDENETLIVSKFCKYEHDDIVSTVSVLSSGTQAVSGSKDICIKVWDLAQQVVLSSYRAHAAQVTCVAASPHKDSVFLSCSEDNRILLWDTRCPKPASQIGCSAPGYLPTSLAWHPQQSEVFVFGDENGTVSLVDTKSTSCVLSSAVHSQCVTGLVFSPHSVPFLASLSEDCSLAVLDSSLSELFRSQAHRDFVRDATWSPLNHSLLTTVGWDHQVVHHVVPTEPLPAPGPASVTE
Protocol: as §1, §2

PRMT6 = target: T4, PRMT6 (Homo sapiens, UniProt Q96LA8); test: HotSpot radioisotope 3H-AdoMet methyltransferase assay, PRMT6
T4 construct: purchased Reaction Biology
T4 sequence (Q96LA8 whole entry): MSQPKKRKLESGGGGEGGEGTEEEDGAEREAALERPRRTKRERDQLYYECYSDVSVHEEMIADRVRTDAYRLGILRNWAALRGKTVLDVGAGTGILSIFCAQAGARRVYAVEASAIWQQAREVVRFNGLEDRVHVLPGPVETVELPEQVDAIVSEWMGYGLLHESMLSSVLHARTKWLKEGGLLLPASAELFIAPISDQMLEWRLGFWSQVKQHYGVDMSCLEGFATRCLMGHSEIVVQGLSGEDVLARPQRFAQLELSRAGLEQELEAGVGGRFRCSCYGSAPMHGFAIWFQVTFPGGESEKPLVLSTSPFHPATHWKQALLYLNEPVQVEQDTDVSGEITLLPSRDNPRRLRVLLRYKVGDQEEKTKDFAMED
Protocol: as §1, §2

PRMT4 = target: T5, PRMT4 (Homo sapiens, UniProt Q86X55); test: HotSpot radioisotope 3H-AdoMet methyltransferase assay, PRMT4; settings: IC50 (nM) PRMT4, 10 doses, threefold serial dilution
T5 construct: purchased Reaction Biology
T5 sequence (Q86X55 1-608): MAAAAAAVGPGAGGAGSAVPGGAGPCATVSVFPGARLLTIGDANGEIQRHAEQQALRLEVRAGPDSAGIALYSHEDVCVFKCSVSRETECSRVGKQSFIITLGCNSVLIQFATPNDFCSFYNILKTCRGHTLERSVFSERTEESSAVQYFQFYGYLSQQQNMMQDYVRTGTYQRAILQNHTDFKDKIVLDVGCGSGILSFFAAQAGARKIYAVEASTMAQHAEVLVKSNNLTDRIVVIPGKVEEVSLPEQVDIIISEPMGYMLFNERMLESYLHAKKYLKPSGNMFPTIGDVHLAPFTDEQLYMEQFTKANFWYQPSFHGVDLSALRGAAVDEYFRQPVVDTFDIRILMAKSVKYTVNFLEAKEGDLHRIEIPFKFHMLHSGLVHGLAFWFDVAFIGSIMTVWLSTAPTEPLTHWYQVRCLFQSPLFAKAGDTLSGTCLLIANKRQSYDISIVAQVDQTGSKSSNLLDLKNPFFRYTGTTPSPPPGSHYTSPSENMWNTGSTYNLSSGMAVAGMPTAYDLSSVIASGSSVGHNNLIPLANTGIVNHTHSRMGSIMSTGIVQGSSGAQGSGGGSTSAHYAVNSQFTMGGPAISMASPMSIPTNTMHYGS
Protocol: as §1, §2

Sequence of PRMT1 (Q99873 whole entry, species assumed): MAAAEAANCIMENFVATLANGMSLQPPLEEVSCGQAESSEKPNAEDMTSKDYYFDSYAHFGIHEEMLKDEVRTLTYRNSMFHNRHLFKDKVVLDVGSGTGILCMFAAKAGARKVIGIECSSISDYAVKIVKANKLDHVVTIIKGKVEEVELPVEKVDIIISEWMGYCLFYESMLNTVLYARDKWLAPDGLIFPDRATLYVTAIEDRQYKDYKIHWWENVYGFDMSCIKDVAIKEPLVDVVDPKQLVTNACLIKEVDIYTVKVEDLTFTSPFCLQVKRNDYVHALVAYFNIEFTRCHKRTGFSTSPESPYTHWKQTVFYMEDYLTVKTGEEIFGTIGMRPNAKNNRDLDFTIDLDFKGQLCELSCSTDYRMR

N=C(NCCCSC[C@H]1O[C@@H](n2cnc3c(N)ncnc32)[C@H](O)[C@@H]1O)Nc1cccc(Br)c1 [Compound 6l, 1-(3-((((2S,3S,4R,5R)-5-(6-amino-9H-purin-9-yl)-3,4-dihydroxytetrahydrofuran-2-yl)methyl)thio)propyl)-3-(3-bromophenyl)guanidine]
IC50 (PRMT1): 16.4 nM | selectivity over G9a (G9a): over 1000 fold | IC50 (PRMT8): 32.1 nM | selectivity over NNMT (NNMT): over 1000 fold | selectivity over NTMT1 (NTMT1): over 1000 fold | selectivity over SETD7 (SETD7): over 1000 fold | IC50 (PRMT5 (C449S)/MEP50): 36.6 nM | IC50 (PRMT6): 30.5 nM | IC50 (PRMT4): 5 nM
